Where no end group is shown, it is not given here. The star is where a group is joined. Biotin = O=C1N[C@H]2[C@H](CS[C@H]2CCCCC(=O)*)N1
Assays:
normal lung fibroblasts [1] = assay: Fibronectin in supernatants of TGFbeta-treated normal lung fibroblasts; assay type: cell-based, human; conditions: 10 μg/ml to 80 μg/ml, 72 hours
Protocol: Normal lung fibroblasts were treated with TGFbeta without or with increasing concentrations for 96-87. Supernatants were assessed for fibronectin levels after 72 hours of treatment. 96-87 had no effect on TGFbeta-induced FN production, even with increasing concentration from 10 μg/ml to 80 μg/ml (FIG. 18).

normal lung fibroblasts [2] = assay: Extracellular matrix proteins in TGFbeta-treated normal lung fibroblasts, immunoblotting; assay type: cell-based, human; conditions: 10 μg/ml peptide
Protocol: Normal lung fibroblasts were treated with vehicle as control (VC) or TGFbeta (T) in the presence or absence of 10 μg/ml of various peptide fragments. The extracellular matrix proteins, Collagen 1A1 and fibronectin (FN) were assessed using immunoblotting.

[3] = test system: systemic sclerosis pulmonary fibrosis lung tissues; assay: MMP-1 induction in systemic sclerosis pulmonary fibrosis lung tissues in organ culture; assay type: cell-based, human; conditions: 10 μg/ml, TGFbeta, 120 hrs
Protocol: Systemic sclerosis pulmonary fibrosis lung tissues were divided into equal size cores. Lung tissues in organ culture were treated with different peptide fragments derived from endostatin at a final concentration of 10 μg/ml in the presence of TGFbeta for 120 hrs. The induction of matrix metalloprotease (MMP)-1 (also known as collagenase) in media conditioned by the lung tissues was examined as a measure of the ability of the peptide to reduce fibrosis and promote extracellular matrix degradation.

[4] = test system: fibroblasts from lung tissues of normal donors; assay: Alpha smooth muscle actin qRT-PCR in TGFbeta-treated fibroblasts from lung tissues of normal donors; assay type: cell-based, human; conditions: 48 hours
Protocol: Fibroblasts were treated with TGFbeta with or without peptide Bio96-17 for 48 hours. RNA was extracted and levels of alpha smooth muscle actin (SMA) measured by qRT-PCR.

[5] = test system: lung tissues of normal donors; assay: Lung tissues of normal donors in organ culture after induction of fibrosis with TGFbeta; assay type: cell-based, human; conditions: normal donor lung tissue; for hydroxyproline levels: fibrosis induced with TGFbeta
[6] = test system: fibroblasts from lungs of patients with SSc; assay: Gene expression in fibroblasts from lungs of patients with systemic sclerosis (SSc); assay type: cell-based, human; conditions: SSc lung fibroblasts
Protocol: […] RNA was extracted and levels of alpha smooth muscle actin (SMA) measured by qRT-PCR.
SSc fibroblasts were treated with 10 μg/ml BioE4-03 for 72 hours. RNA was extracted and used to measure SMA and Collagen 1A2.

[7] = test system: mc-38 colon adenocarcinoma tumor cells; assay: mc-38 colon adenocarcinoma tumor growth in mice, oral gavage; assay type: in vivo; conditions: 100 μg/mouse oral gavage twice/week; for mean rate of increase in the tumor volume at day 21: PBS control 151.1 mm^3 per day; for mean tumor volume at day 21 (model-based estimate): PBS control 1492.1 mm^3
Protocol: (§1) For each of the experiments, descriptive statistics (means and standard deviations) for tumor volumes were calculated over time for each experimental group (i.e. Experiment 1: Control vs. BioE4 (FIG. 1); Experiment 2: PBS, Bio96, and BioE4-03 (FIG. 5)). Since tumor growth tends to be curvilinear, general linear mixed models (GLMMs) were created to estimate treatment-specific growth curves over time and to make comparisons between the peptide treatments and control. Separate GLMMs were constructed for each experiment, and each GLMM included random effects for each mouse, to control for the fact that the repeated volume measurements within a given mouse were correlated with one another. Tumor volume served as the dependent variable in each model, while time (in days), […], treatment x time, and treatment x time^2 were included as independent variables. Using these models, the estimated mean tumor volumes at specific selected time points and the mean rate of change in the tumor volumes at specific selected time points were compared. If a mouse's tumor grew too large, it was sacrificed; however, all tumor volumes measured prior to sacrifice were included in the modeling process. SAS v9.4 (SAS Institute, Cary, NC) was used for all analyses. All hypothesis tests were 2-sided, and p-values <0.05 were considered statistically significant.
sMIC tolerant transgenic (MB481 strain) mice (Liu et al, Perturbation of NK cell peripheral homeostasis accelerates prostate carcinoma metastasis. J. Clin. Invest. 123:4410, 2013) were injected with 1×10^5 mc-38 colon adenocarcinoma tumor cells via subcutaneous injection When tumor size reached approximately 75 mm^3, treatment was started. start treatment at four group. Bio96 100 μg/mouse, BioE4-03 100 μg/mouse, were given via oral gavage in a volume of 100 μl. PBS (100 μl) was given as a vehicle control. Peptides and vehicle were administered twice/week. Tumor volume was measured 3 times per week.
Direct comparisons were made between the PBS control and Bio96 and between PBS and BioE4-03 with respect to the mean tumor volumes at Day 21 and the mean rate of change in the tumor volumes at Day 21 (FIG. 5 through FIG. 7).

tumors = assay: Histologic analysis of tumors (H & E, Masson Trichrome); assay type: in vivo, mouse; conditions: for collagen bundles in the tumors (Masson Trichrome stain): compared to tumors from vehicle treated mice
Protocol: Histological analysis of tumors treated with vehicle alone, or with BioE4-03 or Bio96 peptides was performed.

[8] = test system: A549 cells (human lung adenocarcinoma cells); assay: Gene expression in A549 cells by real-time PCR; assay type: cell-based; conditions: A549, 10 μg/ml, 48 hours
Protocol: (§2) The expression of several genes implicated in tumorigenesis, angiogenesis and cancer stem cell renewal was measured in a variety of tumor types and organs.
Tumor cells were treated with 10 μg/ml BioE4-03 for 48 hours. RNA was extracted and analyzed by real-time PCR. N=6-8 independent experiments. Statistical analysis was done using the paired t-test.

[9] = test system: HCT116T cells (human colon carcinoma cells); assay: Gene expression in HCT116T cells by real-time PCR; assay type: cell-based; conditions: 10 μg/ml, 48 hours
Protocol: as §2
Tumor cells were treated with 10 μg/ml BioE4-03 for 48 hours. RNA was extracted and analyzed by real-time PCR. N=3-4 independent experiments (except for uPAR where n=2).

[10] = test system: lung tissues of patients with SSc; assay: Hydroxyproline in lung tissues of patients with SSc in organ culture; assay type: cell-based, human; conditions: SSc lung tissue, organ culture 72 hours
[11] = test system: human lung adenocarcinoma cells (A549); assay: IL-6 mRNA by qPCR in A549 cells; assay type: cell-based; conditions: A549, 48 hours, relative to vehicle controls
Protocol: (§3) IL-6 mRNA levels were measured via qPCR in human lung adenocarcinoma cells (A549) treated for 48 hours with BioE4-03 peptide. […] For comparison, a parallel experiment was done using non-biotinylated E4-03. […] Additionally, IL-6 protein levels in the supernatant of A549 cells were measured by ELISA after 72 hours of treatment with E4-03 peptide.

[12] = test system: fibroblasts from lungs of patients with IPF; assay: Gene expression in fibroblasts from lungs of patients with idiopathic pulmonary fibrosis (IPF); assay type: cell-based, human; conditions: IPF lung fibroblasts
[13] = test system: lung tissues of patients with IPF; assay: Hydroxyproline in lung tissues of patients with IPF in organ culture; assay type: cell-based, human; conditions: IPF lung tissue, organ culture 72 hours
skin tissues from donors = assay: Gene expression in donor skin tissues with TGFbeta-induced fibrosis; assay type: cell-based, human; conditions: skin tissue
Excerpt: BioE4-03 further reduces Col1A1 and fibronectin (FN) gene expression in skin tissues from donors in which fibrosis was induced with TGFbeta (FIG. 25).

[14] = test system: TRAMP C-2 mouse prostate tumor cells; conditions: C57BL6 mice, 50 μg/dose oral gavage twice per week, day 15, vs water vehicle
Protocol: as §1

[15] = test system: human lung adenocarcinoma cells (A549); assay: IL-6 protein by ELISA in supernatant of A549 cells; assay type: cell-based; conditions: A549, 72 hours, relative to vehicle controls
Protocol: as §3

For “ATGQASSLLGGRLLGQ (C-terminal endostatin-derived peptide 96-87)”, the “TGFbeta-induced FN production (supernatants)” value (normal lung fibroblasts [1]) was “no effect”.

For “ATGQASSLLGGRLLGQSAASCHHA (C-terminal endostatin-derived peptide 96-17)”, the “Col1A1 levels induced by TGFbeta (immunoblotting)” value (normal lung fibroblasts [2]) was “effective at reducing”, the “FN levels induced by TGFbeta (immunoblotting)” value (normal lung fibroblasts [2]) was “effective at reducing” and the “MMP-1 production in media conditioned by the lung tissues” value (“MMP-1 production in media conditioned” below) [3] was “induced MMP-1 production”.

In the case of “Bio96-17: SEQ ID NO:4 being biotinylated at its N-terminus (Biotin-ATGQASSLLGGRLLGQSAASCHHA; not fully specified (C-terminus))”, the “TGFbeta-induced SMA levels (qRT-PCR)” value [4] is reported as “significant reduction”, the “secreted Col1A1 protein levels” value ([5]; TGFbeta, cultured 120 hours) is reported as “significant reduction” and the hydroxyproline levels [5] is reported as “significant reductions”. For the same substance, the Coll1A2 levels ([6]; Bio96-17 experiment) was “significant reduction” and the SMA levels ([6]; Bio96-17 experiment) was “significant reduction”.

In the case of “Biotin-NH2-ATGQASSLL-CONH2 (Biotin-ATGQASSLL-NH2; SMILES CC(C)C[C@H](NC(=O)[C@H](CC(C)C)NC(=O)[C@H](CO)NC(=O)[C@H](CO)NC(=O)[C@H](C)NC(=O)[C@H](CCC(N)=O)NC(=O)CNC(=O)[C@@H](NC(=O)[C@H](C)NC(=O)CCCC[C@@H]1SC[C@@H]2NC(=O)N[C@@H]21)[C@@H](C)O)C(N)=O) [Bio96]”, the “mean rate of increase in the tumor volume at day 21” value [7] is reported as 90.6 mm^3 per day, the “mean tumor volume at day 21 (model-based estimate)” value [7] is reported as 871.4 mm^3 and the “collagen bundles in the tumors (Masson Trichrome stain)” value (tumors) is reported as “thinner collagen bundles”. The “tumor cell arrangement (H & E)” value (tumors; tumors from treated mice) was “looser cell arrangement”.

With “Biotin-NH2-SYCETWRTEAPSATGQASSLLGGRLLGQSAASCHHA-CONH2 [BioE4-03]” the “Expression of IL-6” value [8] was “significantly reduced”, the “Expression of LOX” value [8] was “significantly reduced” and the “Expression of PAI-I” value [8] was “significantly reduced”. For the same substance, the “Expression of PDGF-A” value [8] was “significantly reduced”, the “Expression of VEGF-A” value [8] was “significantly reduced” and the “Expression of uPA” value [8] was “significantly reduced”. For the same substance, the “Expression of uPAR” value [8] was “significantly reduced”, the “Expression of IL-6” value [9] was “significantly reduced” and the “Expression of PAI-I” value [9] was “significantly reduced”. For the same substance, the “Expression of PDGF-A” value [9] was “significantly reduced”, the “Expression of VEGF-A” value [9] was “significantly reduced” and the “Expression of uPA” value [9] was “significantly reduced”. The “Expression of uPAR” value ([9]; n=2) was “significantly reduced”, the “mean rate of increase in the tumor volume at day 21” value [7] was 76.0 mm^3 per day and the “mean tumor volume at day 21 (model-based estimate)” value [7] was 767.7 mm^3. For the same substance, the hydroxyproline levels [5] was “significant reductions”, the hydroxyproline levels [10] was “significant reduction” and the “expression of IL-6 mRNA” value [11] was “significantly reduced”. For the same substance, the Coll1A2 levels [12] was “trend towards decrease”, the SMA levels [12] was “trend towards decrease” and the Coll1A2 levels ([6]; 10 μg/ml, 72 hours) was “significant reduction”. For the same substance, the SMA levels ([6]; 10 μg/ml, 72 hours) was “significant reduction”, the “collagen bundles in the tumors (Masson Trichrome stain)” value (tumors) was “thinner collagen bundles” and the “tumor cell arrangement (H & E)” value (tumors; tumors from treated mice) was “looser cell arrangement”. For the same substance, the “tumor necrosis (H & E)” value (tumors; tumors from treated mice) was “notable necrosis”, the hydroxyproline levels [13] was “significant reduction” and the Col1A1 gene expression (skin tissues from donors) was “reduces”. For the same substance, the “fibronectin (FN) gene expression” value (skin tissues from donors) was “reduces”.

“Biotin-NH2-SYCETWRTEAPSATGQASSLLGGRLLGQSAASCHHAYIVLCIENSFMT-CONH2 [BioE4]” was tested, and the “mean rate of increase in the tumor volume on day 15, Control vs. peptide group” value [14] was “significantly (p=0.02) greater in the Control group” and the “mean tumor volume at day 15 (model-based estimate), Control vs. peptide group” value [14] was “significantly (p=0.0001) greater in the Control group”.

In the case of “SYCETWRTEAPSATGQASSLL (C-terminal endostatin-derived peptide 91-96)”, the “MMP-1 production in media conditioned” value [3] is reported as “no effect”.

“SYCETWRTEAPSATGQASSLLGGRLLGQ (C-terminal endostatin-derived peptide 91-97) [91-87]” was tested, and the “MMP-1 production in media conditioned” value [3] was “no effect”.

“SYCETWRTEAPSATGQASSLLGGRLLGQSAASCHHA (C-terminal endostatin-derived peptide E4-03)” was tested, and the “Col1A1 levels induced by TGFbeta (immunoblotting)” value (normal lung fibroblasts [2]) was “effective at reducing”, the “FN levels induced by TGFbeta (immunoblotting)” value (normal lung fibroblasts [2]) was “effective at reducing” and the “MMP-1 production in media conditioned” value [3] was “induced MMP-1 production”. For the same substance, the “expression of IL-6 mRNA” value [11] was “reduced” and the “IL-6 protein levels in the supernatant” value [15] was “significantly reduced”.

From patent publication US12721881B2, “Endostatin peptides for the treatment of tumors, fibrosis and acute lung injury” (MUSC Foundation for Research Development, priority 2019, dated 2026)
